{
  "source": "ChEMBL document CHEMBL1201862",
  "about": "“PubChem BioAssay data set” (2004)",
  "assay_in_all_cases": "NCI anticancer screen, dose series, 48 h",
  "key": {"[1]": {"test_system": "NCI-H460"}, "[2]": {"test_system": "UACC-257"}, "[3]": {"test_system": "SR"}, "[4]": {"test_system": "Malme-3M"}, "[5]": {"test_system": "KM12"}, "[6]": {"test_system": "OVCAR-3"}, "[7]": {"test_system": "KM-20L2"}, "[8]": {"test_system": "COLO 205"}, "[9]": {"test_system": "M14"}, "[10]": {"test_system": "ACHN"}, "[11]": {"test_system": "A549"}, "[12]": {"test_system": "DMS-273"}, "[13]": {"test_system": "HCT-116"}, "[14]": {"test_system": "SK-MEL-2"}, "[15]": {"test_system": "RPMI-8226"}, "[16]": {"test_system": "SN12C"}, "[17]": {"test_system": "UO-31"}, "[18]": {"test_system": "NCI-H23"}, "[19]": {"test_system": "IGROV-1"}, "[20]": {"test_system": "M19-MEL"}, "[21]": {"test_system": "UACC-62"}, "[22]": {"test_system": "K562"}, "[23]": {"test_system": "SF-539"}, "[24]": {"test_system": "DLD-1"}, "[25]": {"test_system": "DMS-114"}, "[26]": {"test_system": "CCRF-CEM"}, "[27]": {"test_system": "RXF 393"}, "[28]": {"test_system": "OVCAR-5"}, "[29]": {"test_system": "SF-268"}, "[30]": {"test_system": "NCI-H226"}, "[31]": {"test_system": "A498"}, "[32]": {"test_system": "OVCAR-4"}, "[33]": {"test_system": "HCT-15"}, "[34]": {"test_system": "SK-MEL-28"}, "[35]": {"test_system": "HOP-18"}, "[36]": {"test_system": "SK-OV-3"}, "[37]": {"test_system": "HCC 2998"}, "[38]": {"test_system": "SNB-75"}, "[39]": {"test_system": "SW-620"}, "[40]": {"test_system": "MOLT-4"}, "[41]": {"test_system": "HT-29"}, "[42]": {"test_system": "TK-10"}, "[43]": {"test_system": "EKVX"}, "[44]": {"test_system": "HL-60"}, "[45]": {"test_system": "SNB-78"}, "[46]": {"test_system": "U-251"}, "[47]": {"test_system": "NCI-H522"}, "[48]": {"test_system": "786-0"}, "[49]": {"test_system": "LXFL 529"}, "[50]": {"test_system": "SK-MEL-5"}, "[51]": {"test_system": "SF-295"}, "[52]": {"test_system": "HOP-92"}, "[53]": {"test_system": "OVCAR-8"}, "[54]": {"test_system": "T47D"}, "[55]": {"test_system": "HOP-62"}, "[56]": {"test_system": "MDA-MB-231"}, "[57]": {"test_system": "XF498"}, "[58]": {"test_system": "DU-145"}, "[59]": {"test_system": "SNB-19"}, "[60]": {"test_system": "BT-549"}, "[61]": {"test_system": "MDA-N"}, "[62]": {"test_system": "PC-3"}, "[63]": {"test_system": "Hs-578T"}, "[64]": {"test_system": "MDA-MB-435"}, "[65]": {"test_system": "CAKI-1"}},
  "note": "“And” between values parts separate entries of the source, which are not always exact repeats. Equal values may be shown once.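 Tested at 5 concentrations; 48 h exposure; 96-well plates; endpoints linearly interpolated, else capped at highest concentration. The concentration for 50% growth inhibition is given as GI50.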 The source made the active and inactive calls. Rule as the data show it: active = GI50 up to about 1.1 µM and inactive = higher.",
  "data": [
    {"smiles": "O=C1OCC/C1=N/O", "values": [
      {"measurement": "GI50", "setting": "[1]", "result": "> 100 µM (inactive)"},
      {"measurement": "GI50", "setting": "[2]", "result": "> 100 µM (inactive)"},
      {"measurement": "GI50", "setting": "[3]", "result": "> 100 µM (inactive)"},
      {"measurement": "GI50", "setting": "[4]", "result": "> 100 µM (inactive)"},
      {"measurement": "GI50", "setting": "[5]", "result": "> 100 µM (inactive)"},
      {"measurement": "GI50", "setting": "[6]", "result": "> 100 µM (inactive)"},
      {"measurement": "GI50", "setting": "[7]", "result": "> 100 µM (inactive)"},
      {"measurement": "GI50", "setting": "[8]", "result": "> 100 µM (inactive)"},
      {"measurement": "GI50", "setting": "[9]", "result": "> 100 µM (inactive)"},
      {"measurement": "GI50", "setting": "[10]", "result": "> 100 µM (inactive)"},
      {"measurement": "GI50", "setting": "[11]", "result": "> 100 µM (inactive)"},
      {"measurement": "GI50", "setting": "[12]", "result": "> 100 µM (inactive)"},
      {"measurement": "GI50", "setting": "[13]", "result": "> 100 µM (inactive)"},
      {"measurement": "GI50", "setting": "[14]", "result": "> 100 µM (inactive)"},
      {"measurement": "GI50", "setting": "[15]", "result": "> 100 µM (inactive)"},
      {"measurement": "GI50", "setting": "[16]", "result": "> 100 µM (inactive)"},
      {"measurement": "GI50", "setting": "[17]", "result": "> 100 µM (inactive)"},
      {"measurement": "GI50", "setting": "[18]", "result": "> 100 µM (inactive)"},
      {"measurement": "GI50", "setting": "[19]", "result": "> 100 µM (inactive)"},
      {"measurement": "GI50", "setting": "[20]", "result": "> 100 µM (inactive)"},
      {"measurement": "GI50", "setting": "[21]", "result": "> 100 µM (inactive)"},
      {"measurement": "GI50", "setting": "[22]", "result": "> 100 µM (inactive)"},
      {"measurement": "GI50", "setting": "[23]", "result": "> 100 µM (inactive)"},
      {"measurement": "GI50", "setting": "[24]", "result": "> 100 µM (inactive)"},
      {"measurement": "GI50", "setting": "[25]", "result": "> 100 µM (inactive)"},
      {"measurement": "GI50", "setting": "[26]", "result": "> 100 µM (inactive)"},
      {"measurement": "GI50", "setting": "[27]", "result": "> 100 µM (inactive)"},
      {"measurement": "GI50", "setting": "[28]", "result": "> 100 µM (inactive)"},
      {"measurement": "GI50", "setting": "[29]", "result": "> 100 µM (inactive)"},
      {"measurement": "GI50", "setting": "[30]", "result": "> 100 µM (inactive)"},
      {"measurement": "GI50", "setting": "[31]", "result": "> 100 µM (inactive)"},
      {"measurement": "GI50", "setting": "[32]", "result": "> 100 µM (inactive)"},
      {"measurement": "GI50", "setting": "[33]", "result": "> 100", "unit": "µM"},
      {"measurement": "GI50", "setting": "[34]", "result": "> 100 µM (inactive)"},
      {"measurement": "GI50", "setting": "[35]", "result": "> 100 µM (inactive)"},
      {"measurement": "GI50", "setting": "[36]", "result": "> 100 µM (inactive)"},
      {"measurement": "GI50", "setting": "[37]", "result": "> 100 µM (inactive)"},
      {"measurement": "GI50", "setting": "[38]", "result": "> 100 µM (inactive)"},
      {"measurement": "GI50", "setting": "[39]", "result": "> 100 µM (inactive)"},
      {"measurement": "GI50", "setting": "[40]", "result": "> 100 µM (inactive)"},
      {"measurement": "GI50", "setting": "[41]", "result": "> 100 µM (inactive)"},
      {"measurement": "GI50", "setting": "[42]", "result": "> 100 µM (inactive)"},
      {"measurement": "GI50", "setting": "[43]", "result": "> 100 µM (inactive)"},
      {"measurement": "GI50", "setting": "[44]", "result": "> 100 µM (inactive)"},
      {"measurement": "GI50", "setting": "[45]", "result": "> 100 µM (inactive)"},
      {"measurement": "GI50", "setting": "[46]", "result": "> 100 µM (inactive)"},
      {"measurement": "GI50", "setting": "[47]", "result": "> 100 µM (inactive)"},
      {"measurement": "GI50", "setting": "[48]", "result": "> 100 µM (inactive)"},
      {"measurement": "GI50", "setting": "[49]", "result": "> 100 µM (inactive)"},
      {"measurement": "GI50", "setting": "[50]", "result": "> 100 µM (inactive)"},
      {"measurement": "GI50", "setting": "[51]", "result": "> 100 µM (inactive)"},
      {"measurement": "GI50", "setting": "[52]", "result": "> 100 µM (inactive)"},
      {"measurement": "GI50", "setting": "[53]", "result": "> 100 µM (inactive)"}
    ]},
    {"smiles": "Cc1cc(O)c2c(=O)c3c(O)cc(O)c4c5c(O)cc(O)c6c(=O)c7c(O)cc(C)c8c1c2c(c34)c(c78)c65", "note": "[HYPERICIN]", "values": [
      {"measurement": "GI50", "setting": "[3]", "result": "99.8 µM (inactive)"},
      {"measurement": "GI50", "setting": "[54]", "result": "> 100 µM (inactive)"},
      {"measurement": "GI50", "setting": "[4]", "result": "61 µM (inactive)"},
      {"measurement": "GI50", "setting": "[55]", "result": "28.3 µM (inactive)"},
      {"measurement": "GI50", "setting": "[5]", "result": "54.5 µM (inactive)"},
      {"measurement": "GI50", "setting": "[6]", "result": "> 100 µM (inactive) and 67 µM (inactive)"},
      {"measurement": "GI50", "setting": "[7]", "result": "21.7 µM (inactive)"},
      {"measurement": "GI50", "setting": "[9]", "result": "> 100 µM (inactive)"},
      {"measurement": "GI50", "setting": "[10]", "result": "> 100 µM (inactive)"},
      {"measurement": "GI50", "setting": "[11]", "result": "52.6 µM (inactive)"},
      {"measurement": "GI50", "setting": "[12]", "result": "56.4 µM (inactive)"},
      {"measurement": "GI50", "setting": "[16]", "result": "60.8 µM (inactive)"},
      {"measurement": "GI50", "setting": "[56]", "result": "10.1 µM (inactive)"},
      {"measurement": "GI50", "setting": "[57]", "result": "71.1 µM (inactive)"},
      {"measurement": "GI50", "setting": "[58]", "result": "> 100 µM (inactive)"},
      {"measurement": "GI50", "setting": "[59]", "result": "> 100 µM (inactive)"},
      {"measurement": "GI50", "setting": "[20]", "result": "44.2 µM (inactive)"},
      {"measurement": "GI50", "setting": "[22]", "result": "61.8 µM (inactive) and 33.3 µM (inactive)"},
      {"measurement": "GI50", "setting": "[24]", "result": "21.3 µM (inactive)"},
      {"measurement": "GI50", "setting": "[27]", "result": "26.4 µM (inactive)"},
      {"measurement": "GI50", "setting": "[29]", "result": "54 µM (inactive)"},
      {"measurement": "GI50", "setting": "[60]", "result": "> 100 µM (inactive)"},
      {"measurement": "GI50", "setting": "[61]", "result": "> 100 µM (inactive)"},
      {"measurement": "GI50", "setting": "[62]", "result": "> 100 µM (inactive)"},
      {"measurement": "GI50", "setting": "[34]", "result": "53.1 µM (inactive)"},
      {"measurement": "GI50", "setting": "[35]", "result": "63.1 µM (inactive)"},
      {"measurement": "GI50", "setting": "[39]", "result": "51.9 µM (inactive)"},
      {"measurement": "GI50", "setting": "[63]", "result": "> 100 µM (inactive)"},
      {"measurement": "GI50", "setting": "[42]", "result": "> 100 µM (inactive)"},
      {"measurement": "GI50", "setting": "[64]", "result": "> 100 µM (inactive)"},
      {"measurement": "GI50", "setting": "[65]", "result": "> 100 µM (inactive)"},
      {"measurement": "GI50", "setting": "[43]", "result": "> 100 µM (inactive) and 62.5 µM (inactive)"},
      {"measurement": "GI50", "setting": "[45]", "result": "42.5 µM (inactive)"},
      {"measurement": "GI50", "setting": "[48]", "result": "> 100 µM (inactive)"},
      {"measurement": "GI50", "setting": "[50]", "result": "59.8 µM (inactive)"},
      {"measurement": "GI50", "setting": "[53]", "result": "74.3 µM (inactive)"}
    ]}
  ]
}
